Results: US9902740B2, “Macrocyclic benzodiazepine dimers, conjugates thereof, preparation and uses” (BRISTOL-MYERS SQUIBB COMPANY, priority 2015, dated 2018)
Like-named read-outs stand apart in the source and are kept apart here.

Key:
Type in all cases: cell-based
[1] = test system: OVCAR3 human ovarian cancer cell line; experiment: Cytotoxic activity of dimers against OVCAR3 cells
Source text: (§1) H226 is a human lung cancer cell line. N87 is a human gastric cancer cell line. OVCAR3 is a human ovarian cancer cell line. HCT116 is a human colon cancer cell line. HCT116/VM46 is a human colon cancer cell line that is multi-drug and paclitaxel resistant.

[2] = test system: H226 human lung cancer cell line; experiment: Cytotoxic activity of dimers against H226 cells
Source text: as §1

[3] = test system: N87 human gastric cancer cell line; experiment: Cytotoxic activity of dimers against N87 cells; conditions: read-out: Cell Line (IC50, nM) N87
Source text: as §1

[4] = test system: HCT116/VM46 human colon cancer cell line (multi-drug and paclitaxel resistant); experiment: Cytotoxic activity of dimers against HCT116/VM46 cells
Source text: as §1

[5] = test system: HCT116 human colon cancer cell line; experiment: Cytotoxic activity of dimers against HCT116 cells
Source text: as §1

Row | SMILES | IC50 ([1]; Table 4, OVCAR3 human ovarian cancer cell line, read-out: Cell Line (IC50, nM) OVCAR3) | IC50 ([2]; Table 4, H226 human lung cancer cell line, read-out: Cell Line (IC50, nM) H226) | IC50 ([3]; Table 4, N87 human gastric cancer cell line) | IC50 ([4]; Table 4) | IC50 ([5]; Table 4) | IC50 ([1]; Homo sapiens, OVCAR-3, read-out: Cell Line (IC50, nM) OVCAR3) | IC50 ([2]; Homo sapiens, NCI-H226, read-out: Cell Line (IC50, nM) H226) | IC50 ([3]; Homo sapiens) | IC50 ([4]; Homo sapiens, HCT-116/VM46, Table 4) | IC50 ([5]; HCT-116, Table 4)
1 | O=C1c2cc3c(cc2N=C[C@@H]2Cc4ccccc4CN12)OCCCOc1cc2c(cc1OCCCCNCCCCO3)C(=O)N1Cc3ccccc3C[C@H]1C=N2 [IIb-5] | 0.6 nM | 0.45 nM | 0.35 nM | 7.3 nM | 0.077 nM | – | – | – | – | –
2 | CN1CCN(c2ccc(C3=CN4C(=O)c5cc6c(cc5N=C[C@@H]4C3)OCCCOc3cc4c(cc3OCCCCCCCCO6)C(=O)N3C=C(c5ccc(N6CCNCC6)cc5)C[C@H]3C=N4)cc2)CC1 [IIc-9] | – | – | – | – | – | 1 nM | 0.33 nM | 0.68 nM | 0.16 nM | 0.063 nM
